Here are results for 18 compounds from patent US20260028354A1, “TETRAHYDRONAPHTHALENE DERIVATIVES AS ESTROGEN RECEPTOR DEGRADERS” (REGENT OF THE UNIVERSITY OF MICHIGAN, priority 2022, published 2026).

A short description of the experiment: Western blot analysis for "B" compounds. The format is cell-based. Particulars: read-out: Traditional Western Degradation Potency (DC50). The method, boiled down:
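Compound-treated cells lysed in RIPA buffer with protease inhibitors; equal protein (BCA) run on 10% SDS-PAGE, transferred to PVDF and probed with target antibodies. Band intensities quantified by densitometry and normalized to GAPDH.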

Take `O=C1CCC(N2Cc3cc4c(cc3C2=O)CN(CC(=O)N2CCC3(CCN(c5ccc([C@@H]6c7ccc(O)cc7CC[C@@H]6c6ccccc6)cc5)CC3)C2)C4)C(=O)N1` (mixture of isomers) [Compound B182, 3-(6-(2-(8-(4-((1R,2S)-6-hydroxy-2-phenyl-1,2,3,4-tetrahydronaphthalen-1-yl)phenyl)-2,8-diazaspiro[4.5]decan-2-yl)-2-oxoethyl)-1-oxo-3,5,6,7-tetrahydropyrrolo[3,4-f]isoindol-2(1H)-yl)piperidine-2,6-dione]: the 50% degradation concentration (DC50) is 10 to 100 nM.

As to `O=C1CCC(N2C(=O)c3cc4c(cc3C2=O)CN([C@H]2CC[C@@H](C(=O)N3CC(Oc5ccc([C@@H]6c7ccc(O)cc7CC[C@@H]6c6ccccc6)cc5)C3)CC2)C4)C(=O)N1` (stereo partly drawn) [Compound B123, 2-(2,6-dioxopiperidin-3-yl)-6-((1R,4s)-4-(3-(4-((1R,2S)-6-hydroxy-2-phenyl-1,2,3,4-tetrahydronaphthalen-1-yl)phenoxy)azetidine-1-carbonyl)cyclohexyl)-6,7-dihydropyrrolo[3,4-f]isoindole-1,3(2H,5H)-dione], the DC50 was below 10 nM.

As to `O=C1CCC(N2C(=O)c3cc4c(cc3C2=O)CN(CC(=O)N2CCC3(CC2)CCN(c2ccc([C@@H]5c6ccc(O)cc6CC[C@@H]5c5ccccc5)cc2)CC3)CC4)C(=O)N1` (mixture of isomers) [Compound B191, 2-(2,6-dioxopiperidin-3-yl)-6-(2-(9-(4-((1R,2S)-6-hydroxy-2-phenyl-1,2,3,4-tetrahydronaphthalen-1-yl)phenyl)-3,9-diazaspiro[5.5]undecan-3-yl)-2-oxoethyl)-5,6,7,8-tetrahydro-1H-pyrrolo[3,4-g]isoquinoline-1,3(2H)-dione], the DC50 was 10 to 100 nM.

Take `O=C1CCC(N2C(=O)c3cc4c(cc3C2=O)CN(CC(=O)N2CCC3(CC2)CCN(c2ccc([C@H]5c6ccc(O)cc6CC[C@H]5c5ccccc5)cn2)CC3)C4)C(=O)N1` (mixture of isomers) [Compound B81, 2-(2,6-dioxopiperidin-3-yl)-6-(2-(9-(5-((1R,2R)-6-hydroxy-2-phenyl-1,2,3,4-tetrahydronaphthalen-1-yl)pyridin-2-yl)-3,9-diazaspiro[5.5]undecan-3-yl)-2-oxoethyl)-6,7-dihydropyrrolo[3,4-f]isoindole-1,3(2H,5H)-dione]: the 50% degradation concentration (DC50) was above 100 nM.

For the compound `O=C1CCC(N2C(=O)c3cc4c(cc3C2=O)CN(CC2(F)CN(C(=O)C3CCN(c5ccc([C@@H]6c7ccc(O)cc7CC[C@@H]6c6ccccc6)cc5)CC3)C2)C4)C(=O)N1` (stereo partly drawn) [Compound B268, 2-(2,6-dioxopiperidin-3-yl)-6-((3-fluoro-1-(1-(4-((1R,2S)-6-hydroxy-2-phenyl-1,2,3,4-tetrahydronaphthalen-1-yl)phenyl)piperidine-4-carbonyl)azetidin-3-yl)methyl)-6,7-dihydropyrrolo[3,4-f]isoindole-1,3(2H,5H)-dione], the DC50 was above 100 nM.

Consider `O=C1CCC(N2C(=O)c3cc4c(cc3C2=O)CN(C2CCN(CC3CN(c5ccc([C@@H]6c7ccc(O)cc7CC[C@@H]6c6ccccc6)cc5)C3)CC2)C4)C(=O)N1` (stereo partly drawn) [Compound B61, 2-(2,6-dioxopiperidin-3-yl)-6-(1-((1-(4-((1R,2S)-6-hydroxy-2-phenyl-1,2,3,4-tetrahydronaphthalen-1-yl)phenyl)azetidin-3-yl)methyl)piperidin-4-yl)-6,7-dihydropyrrolo[3,4-f]isoindole-1,3(2H,5H)-dione], for which the half-maximal degradation concentration (DC50) is below 10 nM.

As to `O=C1CCC(N2C(=O)c3cc4c(cc3C2=O)CN(CC2(F)CCN(CC3CCN(c5ccc([C@@H]6c7ccc(O)cc7CC[C@@H]6c6ccccc6)cc5)CC3)CC2)C4)C(=O)N1` (stereo partly drawn) [Compound B270, 2-(2,6-dioxopiperidin-3-yl)-6-((4-fluoro-1-((1-(4-((1R,2S)-6-hydroxy-2-phenyl-1,2,3,4-tetrahydronaphthalen-1-yl)phenyl)piperidin-4-yl)methyl)piperidin-4-yl)methyl)-6,7-dihydropyrrolo[3,4-f]isoindole-1,3(2H,5H)-dione], the 50% degradation concentration (DC50) is above 100 nM.

As for `O=C1CCC(N2C(=O)c3cc4c(cc3C2=O)CN(C(=O)[C@H]2CC[C@H](CN3CC(Nc5ccc([C@@H]6c7ccc(O)cc7CC[C@@H]6c6ccccc6)cc5)C3)CC2)C4)C(=O)N1` (stereo partly drawn) [Compound B112, 2-(2,6-dioxopiperidin-3-yl)-6-((1R,4r)-4-((3-((4-((1R,2S)-6-hydroxy-2-phenyl-1,2,3,4-tetrahydronaphthalen-1-yl)phenyl)amino)azetidin-1-yl)methyl)cyclohexane-1-carbonyl)-6,7-dihydropyrrolo[3,4-f]isoindole-1,3(2H,5H)-dione], the DC50 was below 10 nM.

As for “3-(6-((1S,4s)-4-(3-((4-((1R,2S)-6-hydroxy-2-phenyl-1,2,3,4- tetrahydronaphthalen-1-yl)phenyl)amino)azetidin-1- yl)cyclohexane-1-carbonyl)-1-oxo-3,5,6,7- tetrahydropyrrolo[3,4-f]isoindol-2(1H)-yl)piperidine-2,6-dione [Compound B116]”, the DC50 was above 100 nM.

In the case of `O=C1CCC(N2C(=O)c3cc4c(cc3C2=O)CN(CC2(F)CCN(C(=O)C3CCN(c5ccc([C@@H]6c7ccc(O)cc7CC[C@@H]6c6ccccc6)cc5)CC3)CC2)C4)C(=O)N1` (stereo partly drawn) [Compound B267, 2-(2,6-dioxopiperidin-3-yl)-6-((4-fluoro-1-(1-(4-((1R,2S)-6-hydroxy-2-phenyl-1,2,3,4-tetrahydronaphthalen-1-yl)phenyl)piperidine-4-carbonyl)piperidin-4-yl)methyl)-6,7-dihydropyrrolo[3,4-f]isoindole-1,3(2H,5H)-dione], the 50% degradation concentration (DC50) is above 100 nM.

In the case of `O=C1CCC(N2C(=O)c3cc4c(cc3C2=O)CN(C2CCN(CC3(F)CN(c5ccc([C@@H]6c7ccc(O)cc7CC[C@@H]6c6ccccc6)cc5)C3)CC2)C4)C(=O)N1` (stereo partly drawn) [Compound B73, 2-(2,6-dioxopiperidin-3-yl)-6-(1-((3-fluoro-1-(4-((1R,2S)-6-hydroxy-2-phenyl-1,2,3,4-tetrahydronaphthalen-1-yl)phenyl)azetidin-3-yl)methyl)piperidin-4-yl)-6,7-dihydropyrrolo[3,4-f]isoindole-1,3(2H,5H)-dione], the DC50 was above 100 nM.

Take `O=C1CCC(N2C(=O)c3cc4c(cc3C2=O)CCN(CC(=O)N2CCC3(CC2)CCN(c2ccc([C@@H]5c6ccc(O)cc6CC[C@@H]5c5ccccc5)cc2)CC3)CC4)C(=O)N1` (stereo partly drawn) [Compound B39, 2-(2,6-dioxopiperidin-3-yl)-7-(2-(9-(4-((1R,2S)-6-hydroxy-2-phenyl-1,2,3,4-tetrahydronaphthalen-1-yl)phenyl)-3,9-diazaspiro[5.5]undecan-3-yl)-2-oxoethyl)-6,7,8,9-tetrahydroazepino[4,5-f]isoindole-1,3(2H,5H)-dione]: the DC50 was above 100 nM.

As to `O=C1CCC(N2C(=O)c3cc4c(cc3C2=O)CN(CC(=O)N2CC3(C2)CN(c2ccc([C@@H]5c6ccc(O)cc6CC[C@@H]5c5ccc(F)cc5)cc2)C3)C4)C(=O)N1` (mixture of isomers) [Compound B188, 2-(2,6-dioxopipcridin-3-yl)-6-(2-(6-(4-((1R,2S)-2-(4-fluorophenyl)-6-hydroxy-1,2,3,4-tetrahydronaphthalen-1-yl)phenyl)-2,6-diazaspiro[3.3]heptan-2-yl)-2-oxoethyl)-6,7-dihydropyrrolo[3,4-f]isoindole-1,3(2H,5H)-dione], the DC50 was 10 to 100 nM.

With `O=C1CCC(N2C(=O)c3cc4c(cc3C2=O)CN(C2CCC3(CC2)CCN(c2ccc([C@@H]5c6ccc(O)cc6CC[C@@H]5c5ccccc5)cc2)CC3)C4)C(=O)N1` (stereo partly drawn) [Compound B189, 2-(2,6-dioxopiperidin-3-yl)-6-(3-(4-((1R,2S)-6-hydroxy-2-phenyl-1,2,3,4-tetrahydronaphthalen-1-yl)phenyl)-3-azaspiro[5.5]undecan-9-yl)-6,7-dihydropyrrolo[3,4-f]isoindole-1,3(2H,5H)-dione], the DC50 was above 100 nM.

Take `O=C1CCC(N2C(=O)c3cc4c(cc3C2=O)CN(CC2CCN(CC3CN(c5ccc([C@@H]6c7ccc(O)cc7CC[C@@H]6c6ccccc6)cc5)C3)CC2)C4)C(=O)N1` (stereo partly drawn) [Compound B62, 2-(2,6-dioxopiperidin-3-yl)-6-((1-((1-(4-((1R,2S)-6-hydroxy-2-phenyl-1,2,3,4-tetrahydronaphthalen-1-yl)phenyl)azetidin-3-yl)methyl)piperidin-4-yl)methyl)-6,7-dihydropyrrolo[3,4-f]isoindole-1,3(2H,5H)-dione]: the DC50 is 10 to 100 nM.

Turning to `CN(c1ccc([C@@H]2c3ccc(O)cc3CC[C@@H]2c2ccccc2)cc1)C1CN([C@H]2CC[C@H](C(=O)N3Cc4cc5c(cc4C3)C(=O)N(C3CCC(=O)NC3=O)C5=O)CC2)C1` (stereo partly drawn) [Compound B130, 2-(2,6-dioxopiperidin-3-yl)-6-((1R,4r)-4-(3-((4-((1R,2S)-6-hydroxy-2-phenyl-1,2,3,4-tetrahydronaphthalen-1-yl)phenyl)(methyl)amino)azetidin-1-yl)cyclohexane-1-carbonyl)-6,7-dihydropyrrolo[3,4-f]isoindole-1,3(2H,5H)-dione], the DC50 was above 100 nM.

On to `O=C1CCC(N2Cc3cc4c(cc3C2=O)CN(C2CCN(CC3CCN(c5ccc([C@@H]6c7ccc(O)cc7CC[C@@H]6c6ccc(F)cc6)cc5)CC3)CC2)C4)C(=O)N1` (stereo partly drawn) [Compound B68, 3-(6-(1-((1-(4-((1R,2S)-2-(4-fluorophenyl)-6-hydroxy-1,2,3,4-tetrahydronaphthalen-1-yl)phenyl)piperidin-4-yl)methyl)piperidin-4-yl)-1-oxo-3,5,6,7-tetrahydropyrrolo[3,4-f]isoindol-2(1H)-yl)piperidine-2,6-dione], for which the 50% degradation concentration (DC50) was below 10 nM.

`O=C1CCC(N2C(=O)c3cc4c(cc3C2=O)CN(CC(=O)N2CCC3(CC2)CCN(c2ncc([C@H]5c6ccc(O)cc6CC[C@H]5c5ccccc5)cn2)CC3)C4)C(=O)N1` (mixture of isomers) [Compound B82, 2-(2,6-dioxopiperidin-3-yl)-6-(2-(9-(5-((1R,2R)-6-hydroxy-2-phenyl-1,2,3,4-tetrahydronaphthalen-1-yl)pyrimidin-2-yl)-3,9-diazaspiro[5.5]undecan-3-yl)-2-oxoethyl)-6,7-dihydropyrrolo[3,4-f]isoindole-1,3(2H,5H)-dione]: the DC50 was above 100 nM.

What is called DC50 is the concentration at which degradation of the target reaches its halfway point.
